Experimental data reported in ChEMBL document CHEMBL1201862, “PubChem BioAssay data set” (2004).
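The compound was tested at five concentrations on cells cultured in 96-well plates, with a 48-hour exposure period. Here, GI50 denotes the concentration required for 50% inhibition of growth.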 Active and inactive are the calls of the source. Rule as the data show it: active = GI50 up to about 1.1 µM and inactive = higher.

Key:
Test in all cases: inhibition of tumour cell growth, NCI panel, 48 h
[1] = tested on: BT-549
[2] = tested on: 786-0
[3] = tested on: NCI/ADR-RES
[4] = tested on: HCT-15
[5] = tested on: HCT-116
[6] = tested on: Malme-3M
[7] = tested on: SF-268
[8] = tested on: HT-29
[9] = tested on: SR
[10] = tested on: UACC-257
[11] = tested on: SK-MEL-28
[12] = tested on: DU-145
[13] = tested on: NCI-H226
[14] = tested on: SK-OV-3
[15] = tested on: OVCAR-8
[16] = tested on: A549
[17] = tested on: RPMI-8226
[18] = tested on: RXF 393
[19] = tested on: NCI-H23
[20] = tested on: MCF7

| SMILES | GI50 [1] | GI50 [2] | GI50 [3] | GI50 [4] | GI50 [5] | GI50 [6] | GI50 [7] | GI50 [8] | GI50 [9] | GI50 [10] | GI50 [11] | GI50 [12] | GI50 [13] | GI50 [14] | GI50 [15] | GI50 [16] | GI50 [17] | GI50 [18] | GI50 [19] | GI50 [20] |
| --- | --- | --- | --- | --- | --- | --- | --- | --- | --- | --- | --- | --- | --- | --- | --- | --- | --- | --- | --- | --- |
| O=[N+]([O-])c1cc(Cl)cc2c1nc(NCCO)c1ccccc12 | 15.4 µM (inactive) | 6.81 µM (inactive) | 23.5 µM (inactive) | 4.36 µM | 4.78 µM (inactive) | 12.3 µM (inactive) | 23.8 µM (inactive) | 0.063 µM (active) | 0.653 µM (active) | 13.8 µM (inactive) | 39.5 µM (inactive) | 1.69 µM (inactive) | 13.5 µM (inactive) | 29.1 µM (inactive) | 16.3 µM (inactive) | 2.95 µM (inactive) | 6.25 µM (inactive) | 6.46 µM (inactive) | 9.75 µM (inactive) | 2.28 µM (inactive) |
| O=C(O)c1c(-c2nccc3ccccc23)[nH]c(-c2ccccc2)c1S(=O)(=O)O | > 100 µM (inactive) | > 100 µM (inactive) | > 100 µM (inactive) | > 100 µM | > 100 µM (inactive) | > 100 µM (inactive) | > 100 µM (inactive) | > 100 µM (inactive) | > 100 µM (inactive) | > 100 µM (inactive) | > 100 µM (inactive) | > 100 µM (inactive) | > 100 µM (inactive) | > 100 µM (inactive) | > 100 µM (inactive) | > 100 µM (inactive) | > 100 µM (inactive) | > 100 µM (inactive) | > 100 µM (inactive) | > 100 µM (inactive) |
| Nc1ccc2nc3c(nc2c1)C(=O)c1ccccc1-3 | > 100 µM (inactive) | 75 µM (inactive) | > 100 µM (inactive) | > 100 µM | > 100 µM (inactive) | > 100 µM (inactive) | > 100 µM (inactive) | > 100 µM (inactive) | > 10 µM (inactive) | > 100 µM (inactive) | > 100 µM (inactive) | > 100 µM (inactive) | 29 µM (inactive) | > 100 µM (inactive) | > 100 µM (inactive) | > 100 µM (inactive) | > 100 µM (inactive) | > 100 µM (inactive) | > 100 µM (inactive) | > 100 µM (inactive) |
| CCOC(=O)CCC(NC(=O)c1ccc(OCc2ccc3nc(-c4ccccc4)c(Cl)nc3c2)cc1)C(=O)OCC (stereo not given) | 22.3 µM (inactive) | 16.6 µM (inactive) | 16.7 µM (inactive) | > 31.6 µM | > 31.6 µM (inactive) | > 100 µM (inactive) | 15 µM (inactive) | > 31.6 µM (inactive) | 12.9 µM (inactive) | > 31.6 µM (inactive) | > 31.6 µM (inactive) | > 31.6 µM (inactive) | 19.2 µM (inactive) | 52.1 µM (inactive) | 14.2 µM (inactive) | 19.5 µM (inactive) | 18.9 µM (inactive) | 2.08 µM (inactive) | 17.2 µM (inactive) | 27.4 µM (inactive) |
| CC[N+]1(C)CCC(O)(c2ccc(Cl)c(Cl)c2)C(C(=O)c2ccc(Cl)c(Cl)c2)C1 (stereo not given) | > 10 µM (inactive) | > 10 µM (inactive) | > 10 µM (inactive) | > 10 µM | > 10 µM (inactive) | > 10 µM (inactive) | > 10 µM (inactive) | > 10 µM (inactive) | > 10 µM (inactive) | > 10 µM (inactive) | > 10 µM (inactive) | > 10 µM (inactive) | > 10 µM (inactive) | > 10 µM (inactive) | > 10 µM (inactive) | > 10 µM (inactive) | > 10 µM (inactive) | > 10 µM (inactive) | > 10 µM (inactive) | > 10 µM (inactive) |
| CSC1=NN(c2ccccc2)C(=O)C1=C(SC)SC | 27.4 µM (inactive) | 24.2 µM (inactive) | 18.4 µM (inactive) | 20.1 µM | 16.7 µM (inactive) | 11.2 µM (inactive) | 26.1 µM (inactive) | 19.1 µM (inactive) | 24 µM (inactive) | 16 µM (inactive) | 30.5 µM (inactive) | 29.9 µM (inactive) | 16.1 µM (inactive) | 31.1 µM (inactive) | 21.5 µM (inactive) | 20 µM (inactive) | 14.3 µM (inactive) | 13.9 µM (inactive) | 19.1 µM (inactive) | 19.2 µM (inactive) |
| O=[N+]([O-])/C(C(Cl)=C(Cl)Cl)=C(/Nc1ccccc1)Sc1ccccc1 | 25.5 µM (inactive) | 21.7 µM (inactive) | 24.4 µM (inactive) | 19.8 µM | 18.5 µM (inactive) | 15.9 µM (inactive) | 14 µM (inactive) | 22.6 µM (inactive) | 20.7 µM (inactive) | 16.6 µM (inactive) | 19.7 µM (inactive) | 21.1 µM (inactive) | 23 µM (inactive) | 20.1 µM (inactive) | 17.7 µM (inactive) | 23.4 µM (inactive) | 32.6 µM (inactive) | 19.8 µM (inactive) | 18.7 µM (inactive) | 28.5 µM (inactive) |
| O=C1Nc2nccnc2C(=O)N2CCC[C@@H]12 | > 100 µM (inactive) | > 100 µM (inactive) | > 100 µM (inactive) | > 100 µM | > 100 µM (inactive) | > 100 µM (inactive) | > 100 µM (inactive) | > 100 µM (inactive) | > 100 µM (inactive) | > 100 µM (inactive) | > 100 µM (inactive) | > 100 µM (inactive) | > 100 µM (inactive) | > 100 µM (inactive) | > 100 µM (inactive) | > 100 µM (inactive) | > 100 µM (inactive) | > 100 µM (inactive) | > 100 µM (inactive) | > 100 µM (inactive) |
| CCCN(CCCC(NC(C)=O)C(=O)NCc1ccccc1)C(=O)N(CCCl)N=O (stereo not given) | 19.2 µM (inactive) | 0.638 µM (active) | > 100 µM (inactive) | 15.5 µM | 22.6 µM (inactive) | 22.4 µM (inactive) | 1.42 µM (inactive) | 30.5 µM (inactive) | 0.564 µM (active) | 28.8 µM (inactive) | 24.3 µM (inactive) | > 100 µM (inactive) | 17.7 µM (inactive) | 25.7 µM (inactive) | 10.4 µM (inactive) | 5.83 µM (inactive) | 28.2 µM (inactive) | 17.8 µM (inactive) | 8.75 µM (inactive) | > 100 µM (inactive) |
| CN(/N=C\c1ccc2ccccc2c1)C1=NCCN1 | 12.1 µM (inactive) | 15.6 µM (inactive) | 20.6 µM (inactive) | 25.2 µM | 15.8 µM (inactive) | 15.6 µM (inactive) | 27.5 µM (inactive) | 13.3 µM (inactive) | 17.3 µM (inactive) | 14.8 µM (inactive) | 13.6 µM (inactive) | 25.6 µM (inactive) | 16.3 µM (inactive) | 35.8 µM (inactive) | 30.3 µM (inactive) | 15.8 µM (inactive) | 17.3 µM (inactive) | 8.63 µM (inactive) | 30.7 µM (inactive) | 16.3 µM (inactive) |
| O=C1c2cccc3cccc(c23)C(=O)N1CCCNCCCNCCCCNCCCNCCCN1C(=O)c2cccc3cccc(c23)C1=O | 3.74 µM (inactive) | 1.07 µM (active) | 14.7 µM (inactive) | 12.8 µM | 1.67 µM (inactive) | 2.6 µM (inactive) | 1.93 µM (inactive) | 1.39 µM (inactive) | 0.929 µM (active) | 6.7 µM (inactive) | 2.46 µM (inactive) | 3.66 µM (inactive) | 4.46 µM (inactive) | 12.9 µM (inactive) | 4.93 µM (inactive) | 2.67 µM (inactive) | 1.33 µM (inactive) | 3.34 µM (inactive) | 2.12 µM (inactive) | 0.449 µM (active) |
| CCCCCCCCCC(=O)N[C@@H](c1ccco1)[C@@H](O)C(=O)O[C@H]1C[C@@]2(O)[C@@H](OC(=O)c3ccccc3)[C@@H]3[C@]4(OC(C)=O)CO[C@@H]4C[C@H](O)[C@@]3(C)C(=O)[C@H](OC(C)=O)C(=C1C)C2(C)C | 0.0419 µM (active) | 0.0282 µM (active) | 4.57 µM (inactive) | 0.752 µM | 0.00539 µM (active) | 0.0269 µM (active) | 0.158 µM (active) | 0.00598 µM (active) | 0.0101 µM (active) | 0.0374 µM (active) | 0.0498 µM (active) | 0.106 µM (active) | 0.0311 µM (active) | 0.0269 µM (active) | 0.0298 µM (active) | 0.0318 µM (active) | < 0.005 µM (active) | 0.043 µM (active) | 0.0385 µM (active) | 0.00695 µM (active) |
| COc1ccc(C2c3c(-c4ccccc4)nn(-c4ccccc4)c3Oc3ncn(N)c(=N)c32)cc1OC (stereo not given) | 4.74 µM (inactive) | 1.67 µM (inactive) | 2.21 µM (inactive) | 1.84 µM | 1.67 µM (inactive) | 1.6 µM (inactive) | 3.03 µM (inactive) | 1.93 µM (inactive) | 3.53 µM (inactive) | 1.95 µM (inactive) | 2 µM (inactive) | 2.89 µM (inactive) | 2.46 µM (inactive) | 6.53 µM (inactive) | 2.1 µM (inactive) | 2.24 µM (inactive) | 2.73 µM (inactive) | 1.84 µM (inactive) | 2.54 µM (inactive) | 1.84 µM (inactive) |
| CN(CCC(=O)O)C1=Nc2ccc(Cl)cc2C(c2ccccc2)=[N+]([O-])C1 | > 100 µM (inactive) | > 100 µM (inactive) | > 100 µM (inactive) | > 100 µM | > 100 µM (inactive) | > 100 µM (inactive) | > 100 µM (inactive) | > 100 µM (inactive) | > 100 µM (inactive) | > 100 µM (inactive) | > 100 µM (inactive) | > 100 µM (inactive) | > 100 µM (inactive) | > 100 µM (inactive) | > 100 µM (inactive) | > 100 µM (inactive) | > 100 µM (inactive) | > 100 µM (inactive) | > 100 µM (inactive) | > 100 µM (inactive) |
